From patent US4766111A, “Lipids with plasmin inhibitory properties” (Trustees of Boston University, priority 1987, dated 1988)
Values joined by “and” are separate entries in the source; they are usually repeats but may differ in a detail not shown here. Equal values may be shown once. Blank lines part the entries; values can stand above or below the molecule they belong to.

Experiments:
Assay type in all cases: biochemical
[1] = Test 1: plasmin/plasmin-like activity, cleavage of substrate by the sample; conditions: Table 2
Procedure: Each fraction was diluted 1:5 in TRIS buffer (50 mM, pH 7.4, I 0.15), and then mixed with the substrate. […] In Test 2, 30 μl of a 1:40 dilution of normal human plasma were used, and in Test 3, 30 µl of […] of pure plasminogen were used. The results, shown as ΔmA/min, represents the average of five readings.

plasmin = plasmin (Homo sapiens, UniProt P00747); experiment: Antiplasmin/plasmin inhibitory activity; conditions: Table 3; for ABSORBANCE: absorbance at 405nm, remaining active plasmin, substrate S-225; for % INHIBITION: by reference to normal human pooled plasma standard curve
Procedure: Fifty-four different runs were conducted, using various compounds and compositions. […] A standard curve is then constructed, by diluting the pooled plasma, and mixing each dilution with a known plasmin standard. Quantity of active plasmin remaining is measured and this quantity is inversely proportional to antiplasmin activity.

[2] = test system: normal human blood pooled plasma; experiment: Test 2: plasminogen activity, sample incubated with normal human pooled plasma; conditions: Table 2
Procedure: Following this, the samples, diluted, were incubated with normal human blood pooled plasma, which had been diluted 1:40 in TRIS buffer, in proportions of 1 part fraction to two parts plasma. These combinations were incubated to determine if the fractions had plasminogen activator properties.
(§1) In Test 2, 30 μl of a 1:40 dilution of normal human plasma were used, and in Test 3, 30 µl of […] of pure plasminogen were used. The results, shown as ΔmA/min, represents the average of five readings.

purified plasminogen = purified plasminogen (Homo sapiens, UniProt P00747); experiment: Test 3: plasminogen activatory activity, sample incubated with purified plasminogen
Procedure: In a third test, each fraction was incubated with purified plasminogen so as to enhance activity, because normal human pooled plasma contains plasma proteins inhibitors.
as §1

[3] = Table I, sample 1:5 dilution, pure plasminogen, average of five readings

purified plasminogen, sequence (P00747 20-810 limits assumed): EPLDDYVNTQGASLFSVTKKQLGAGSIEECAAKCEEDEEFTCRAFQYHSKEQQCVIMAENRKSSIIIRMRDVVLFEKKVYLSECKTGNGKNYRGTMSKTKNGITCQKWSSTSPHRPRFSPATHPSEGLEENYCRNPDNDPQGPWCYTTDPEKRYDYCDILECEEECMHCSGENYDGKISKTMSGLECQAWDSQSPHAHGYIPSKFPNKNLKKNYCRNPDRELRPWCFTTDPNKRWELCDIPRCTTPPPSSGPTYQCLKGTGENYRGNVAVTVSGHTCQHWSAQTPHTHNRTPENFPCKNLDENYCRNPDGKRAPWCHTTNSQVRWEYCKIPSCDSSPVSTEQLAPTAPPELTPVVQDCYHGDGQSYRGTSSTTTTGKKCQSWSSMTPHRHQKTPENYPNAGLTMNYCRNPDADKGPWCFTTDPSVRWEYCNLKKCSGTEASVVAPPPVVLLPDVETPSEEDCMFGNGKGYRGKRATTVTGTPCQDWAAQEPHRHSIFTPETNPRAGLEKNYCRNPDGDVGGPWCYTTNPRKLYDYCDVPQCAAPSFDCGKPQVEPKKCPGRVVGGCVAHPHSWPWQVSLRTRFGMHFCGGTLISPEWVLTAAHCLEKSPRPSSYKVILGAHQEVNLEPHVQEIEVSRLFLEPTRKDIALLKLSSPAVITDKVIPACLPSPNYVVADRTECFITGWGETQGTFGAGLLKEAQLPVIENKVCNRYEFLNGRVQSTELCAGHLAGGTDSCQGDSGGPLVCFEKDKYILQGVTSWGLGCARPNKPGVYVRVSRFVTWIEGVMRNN

ABSORBANCE (plasmin): 0.176 and 0.192
Plasminogen Activatory Activity (purified plasminogen; Table 2): 0
Molecule: CERAMIDE GALACTOSIDE [PURIFIED CERAMIDE GALACTOSIDE]
Plasmin Activity [1]: 0
Plasminogen Activity [2]: 0

ABSORBANCE (plasmin): 0.184
% INHIBITION (plasmin): 0%
Plasminogen Activatory Activity (purified plasminogen; Table 2): 0
Molecule: CERAMIDE TRIHEXOSIDE [PURIFIED CERAMIDE TRIHEXOSIDE]
Plasmin Activity [1]: 0
Plasminogen Activity [2]: 0

ABSORBANCE (plasmin): 0.190
% INHIBITION (plasmin): 0%
Plasminogen Activatory Activity (purified plasminogen; Table 2): 0
Molecule: DIGALACTOSYL DIGLYCERIDE [PURIFIED DIGALACTOSYL DIGLYCERIDE]
Plasmin Activity [1]: 0
Plasminogen Activity [2]: 0

ABSORBANCE (plasmin): Turbid
Molecule: PHOSPHATIDYL INOSITOL 4-MONOPHOSPHATE

ABSORBANCE (plasmin): 0.187
% INHIBITION (plasmin): 0%
Plasminogen Activatory Activity (purified plasminogen; Table 2): 0
Molecule: PHOSPHATIDYL INOSITOL [PURIFIED PHOSPHATIDYL INOSITOL]
Plasmin Activity [1]: 0
Plasminogen Activity [2]: 0

Plasminogen Activatory Activity (purified plasminogen; [3]): 0 ΔmA/min
Molecule: PURE PLASMINOGEN: purified plasminogen used in Test 3, tested alone

% INHIBITION (plasmin): 18%
Molecule: SPHINGOMYELIN

Plasminogen Activatory Activity (purified plasminogen; [3]): 19 ΔmA/min and 18 ΔmA/min
B1: ACTIVATED PURE PLASMINOGEN: activated pure plasminogen, positive reference in Test 3 (protein, UniProt P00747 20-580; P00747 581-810, looked up)
Plasmin heavy chain A: EPLDDYVNTQGASLFSVTKKQLGAGSIEECAAKCEEDEEFTCRAFQYHSKEQQCVIMAENRKSSIIIRMRDVVLFEKKVYLSECKTGNGKNYRGTMSKTKNGITCQKWSSTSPHRPRFSPATHPSEGLEENYCRNPDNDPQGPWCYTTDPEKRYDYCDILECEEECMHCSGENYDGKISKTMSGLECQAWDSQSPHAHGYIPSKFPNKNLKKNYCRNPDRELRPWCFTTDPNKRWELCDIPRCTTPPPSSGPTYQCLKGTGENYRGNVAVTVSGHTCQHWSAQTPHTHNRTPENFPCKNLDENYCRNPDGKRAPWCHTTNSQVRWEYCKIPSCDSSPVSTEQLAPTAPPELTPVVQDCYHGDGQSYRGTSSTTTTGKKCQSWSSMTPHRHQKTPENYPNAGLTMNYCRNPDADKGPWCFTTDPSVRWEYCNLKKCSGTEASVVAPPPVVLLPDVETPSEEDCMFGNGKGYRGKRATTVTGTPCQDWAAQEPHRHSIFTPETNPRAGLEKNYCRNPDGDVGGPWCYTTNPRKLYDYCDVPQCAAPSFDCGKPQVEPKKCPGR
Plasmin light chain B: VVGGCVAHPHSWPWQVSLRTRFGMHFCGGTLISPEWVLTAAHCLEKSPRPSSYKVILGAHQEVNLEPHVQEIEVSRLFLEPTRKDIALLKLSSPAVITDKVIPACLPSPNYVVADRTECFITGWGETQGTFGAGLLKEAQLPVIENKVCNRYEFLNGRVQSTELCAGHLAGGTDSCQGDSGGPLVCFEKDKYILQGVTSWGLGCARPNKPGVYVRVSRFVTWIEGVMRNN
modifications: Plasmin
